Earlier results in patent US10603330B2, “Arginase inhibitors as therapeutics” (Mars, Incorporated, priority 2010, dated 2020).

Columns and labels:
[1] = tested on: bacterial arginase (H. pylori); details: inhibition of bacterial arginase
[2] = tested on: central airways responsiveness; details: murine chronic asthma model
[3] = tested on: blood pressure; details: spontaneously hypertensive animals
[4] = tested on: EAE; details: animals undergoing experimental autoimmune encephalomyelitis

For NC(=NCCC[C@H](N)C(=O)O)NO [NOHA], the “CD3 expression on T-cells” value [1] is given as “reestablished CD3 expression on T-cells”.
In the case of N[C@@H](CSCCB(O)O)C(=O)O [S-(2-boronoethyl)-L-cysteine], the “methacholine induced responsiveness of the central airways” value [2] is listed as “attenuated”.
For N=C(NO)NCC[C@H](N)C(=O)O [nor-NOHA, N^ω-hydroxy-nor-L-arginine], the blood pressure [3] is listed as “lowered blood pressure”.
In the case of NC(CCCCB(O)O)C(=O)O (stereo not shown) [ABH, amino-6-boronohexanoic acid], the “severity of EAE vs control animals” value [4] is listed as “much milder form of EAE”.
